# How the values were obtained:
# Experiment in all cases: Transcriptional activity, GAL4-PPAR LBD chimera / PLAP reporter in CV-1 cells
# Assay type in all cases: cell-based
# [1] = target: T1, PPAR γ (Homo sapiens, UniProt P37231); conditions: GAL4-PPARγ LBD (174-475), PLAP activity 24 hours after addition, read-out: Transcriptional activities EC50 PPAR γ
# T1 construct: 174-475 (PPARγ); expressed in transfected cells; host or cells: CV-1 (ATCC CCL-70)
# T1 sequence (P37231 174-475 isoform P37231-2): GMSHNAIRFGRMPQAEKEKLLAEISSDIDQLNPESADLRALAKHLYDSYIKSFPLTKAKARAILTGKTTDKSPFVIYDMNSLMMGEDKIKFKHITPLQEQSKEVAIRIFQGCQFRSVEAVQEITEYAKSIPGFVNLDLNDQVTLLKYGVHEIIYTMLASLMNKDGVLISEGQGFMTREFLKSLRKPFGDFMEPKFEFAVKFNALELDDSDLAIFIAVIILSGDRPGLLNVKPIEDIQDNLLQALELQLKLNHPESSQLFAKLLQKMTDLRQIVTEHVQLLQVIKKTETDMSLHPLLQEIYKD
# From the text: (§1) A GAL4-PPAR LBD chimera expression vector was constructed by ligating human PPAR 167-468 (PPARα), 138-440 (NUC-1) and 174-475 (PPARγ) amino acid regions (LBD: Ligand Binding Domain) to a yeast transcriptional factor GAL4 1-147 amino acid region. As the reporter gene, PLAP (Placental Alkaline Phosphatase) was used, and this was ligated downstream of a TK promoter containing a 5-copy GAL4 DNA binding element to construct a vector. As host cells, CV-1 (ATCC CCL-70) was used. That is, CV-1 cells were spread at a density of 5×10^5 cells on a 35-mm dish and cultured in 10% FCS/DMEM for 24 hours, and using FuGENE 6 transfection reagent, the cells were co-transfected with the GAL4-PPAR LBD expression vector and GAL4 DBD-TK-PLAP expression vector. 24 hours after this transfection, the cells were spread again on a 96-well plate at a density of 1×10^4/well and further cultured for 24 hours. After 24 hours, the medium was exchanged with DMEM containing 10% FCS, which was previously treated at 65° C. for inactivating intrinsic alkaline phosphatase, and a test compound was added at an arbitrary concentration. The transcriptional activity was determined in terms of PLAP activity secreted 24 hours after addition of the compound, to calculate EC50. The PLAP activity was determined after adding 50 μl assay buffer and 50 μl chemoluminescence substrate to 10 μl culture supernatant and incubating the mixture at room temperature for 1 hour. The transcriptional activities for PPAR, PPARβ(δ) and PPARγ are shown respectively in Table 1.
# [2] = target: T2, PPAR β (Homo sapiens, UniProt Q03181); conditions: GAL4-NUC-1 LBD (138-440), PLAP activity 24 hours after addition, read-out: Transcriptional activities EC50 PPAR β
# T2 construct: 138-440 (NUC-1); expressed in transfected cells; host or cells: CV-1 (ATCC CCL-70)
# T2 sequence (Q03181 138-440): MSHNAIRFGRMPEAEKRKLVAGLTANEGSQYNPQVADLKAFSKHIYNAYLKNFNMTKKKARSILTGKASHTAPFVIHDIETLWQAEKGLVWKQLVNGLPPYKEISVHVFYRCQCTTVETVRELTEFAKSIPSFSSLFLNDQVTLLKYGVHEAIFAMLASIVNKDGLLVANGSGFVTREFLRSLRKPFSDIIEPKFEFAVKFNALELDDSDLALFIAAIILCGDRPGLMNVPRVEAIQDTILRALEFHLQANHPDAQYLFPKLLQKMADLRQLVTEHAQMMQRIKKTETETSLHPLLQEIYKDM
# From the text: as §1
# [3] = target: T3, PPAR α (Homo sapiens, UniProt Q07869); conditions: GAL4-PPARα LBD (167-468), PLAP activity 24 hours after addition, read-out: Transcriptional activities EC50 PPAR α
# T3 construct: human PPAR 167-468 (PPARα); expressed in transfected cells; host or cells: CV-1 (ATCC CCL-70)
# T3 sequence (Q07869 167-468): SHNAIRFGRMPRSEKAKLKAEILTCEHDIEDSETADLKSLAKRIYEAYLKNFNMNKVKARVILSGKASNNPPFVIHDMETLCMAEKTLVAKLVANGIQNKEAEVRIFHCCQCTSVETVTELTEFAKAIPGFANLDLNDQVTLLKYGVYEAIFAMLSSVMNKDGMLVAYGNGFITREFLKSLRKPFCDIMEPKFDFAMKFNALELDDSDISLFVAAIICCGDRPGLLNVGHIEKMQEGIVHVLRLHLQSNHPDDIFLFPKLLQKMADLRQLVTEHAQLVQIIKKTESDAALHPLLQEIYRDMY
# From the text: as §1
Structure (SMILES),EC50 [1] [nM],EC50 [2] [nM],EC50 [3] [nM]
"CC(C)OC(Cc1ccnc(OCCOc2ccc(Cl)cc2Cl)c1)C(=O)O (stereo not drawn) [Example 1, 3-{2-[2-(2,4-Dichlorophenoxy)ethoxy]-4-pyridyl}-2-isopropoxypropanoic acid]",68.5,1410,5.6
"CCOC(Cc1ccnc(OCCOc2ccc(C(F)(F)F)cc2)c1)C(=O)O (stereo not drawn) [Example 19, 2-Ethoxy-3-(2-{2-[4-(trifluoromethyl)phenoxy]ethoxy}-4-pyridyl)propanoic acid]",64.1,339,4.9
"CCOC(Cc1ccnc(OCCOc2ccc(C(C)(C)C)cc2)c1)C(=O)O (stereo not drawn) [Example 25, 3-(2-{2-[4-(tert-Butyl)phenoxy]ethoxy}-4-pyridyl)-2-ethoxypropanoic acid]",76.3,1580,2.7

# Reference: patent publication US7253178B2, “Carboxylic acids” (Eisai Co., Ltd., priority 2001, dated 2007)
